What was measured:
Assay in all cases: biochemical
KRas G12A = KRas G12A (Homo sapiens, UniProt P01116, G12A);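 also: binding to KRas measured by TR-FRET displacement after one hour at room temperature, IC50 from a four-parameter fit of percent-of-control values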
Procedure: (§1) The ability of a compound to bind to KRas was measured using a TR-FRET displacement assay. […] After a 60-minute incubation at room temperature, the reaction was measured using a BMG LABTECH CLARIO star Plus via TR-FRET. […] The POC values were fit to a 4-parameter IC50 equation and the IC50 value reported.

KRas WT = KRas WT (Homo sapiens, UniProt P01116);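 also: binding to KRas read as TR-FRET displacement after a one-hour room-temperature incubation, IC50 derived from percent-of-control values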
Procedure: as §1

KRas G12D = KRas G12D (Homo sapiens, UniProt P01116, G12D);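 also: TR-FRET displacement binding assay on KRas, read after a one-hour incubation at room temperature, IC50 fitted from percent-of-control values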
Chain of KRas G12D (P01116 1-169 isoform P01116-2 G12D): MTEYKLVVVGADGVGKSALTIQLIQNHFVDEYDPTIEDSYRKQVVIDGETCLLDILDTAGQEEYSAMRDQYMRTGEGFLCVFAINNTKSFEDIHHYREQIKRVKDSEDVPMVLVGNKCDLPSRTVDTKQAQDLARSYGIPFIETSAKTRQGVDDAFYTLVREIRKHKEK
Procedure: as §1

KRas G12S = KRas G12S (Homo sapiens, UniProt P01116, G12S);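 also: TR-FRET displacement binding to KRas, read after one hour incubation at room temperature, IC50 from four-parameter fit of percent of control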
Chain of KRas G12S (P01116 1-169 isoform P01116-2 G12S): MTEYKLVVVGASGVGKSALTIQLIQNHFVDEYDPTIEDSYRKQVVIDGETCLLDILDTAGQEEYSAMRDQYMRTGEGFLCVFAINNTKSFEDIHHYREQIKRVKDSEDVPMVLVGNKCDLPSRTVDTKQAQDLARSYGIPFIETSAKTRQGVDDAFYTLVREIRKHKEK
Procedure: as §1

KRas G12R = KRas G12R (Homo sapiens, UniProt P01116, G12R);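 also: TR-FRET displacement assay of compound binding to KRas, read after one hour at room temperature, potency from a four-parameter fit of percent-of-control values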
Chain of KRas G12R (P01116 1-169 isoform P01116-2 G12R): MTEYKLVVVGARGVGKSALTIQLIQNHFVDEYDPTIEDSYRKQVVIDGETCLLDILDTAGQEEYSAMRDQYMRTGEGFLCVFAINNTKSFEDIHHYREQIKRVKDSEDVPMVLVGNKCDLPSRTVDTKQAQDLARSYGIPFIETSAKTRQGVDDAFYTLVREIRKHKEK
Procedure: as §1

KRas G12C = KRas G12C (Homo sapiens, UniProt P01116, G12C);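 also: binding to KRas assessed by TR-FRET displacement after one hour incubation at room temperature, potency fitted from percent-of-control values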
Chain of KRas G12C (P01116 1-169 isoform P01116-2 G12C): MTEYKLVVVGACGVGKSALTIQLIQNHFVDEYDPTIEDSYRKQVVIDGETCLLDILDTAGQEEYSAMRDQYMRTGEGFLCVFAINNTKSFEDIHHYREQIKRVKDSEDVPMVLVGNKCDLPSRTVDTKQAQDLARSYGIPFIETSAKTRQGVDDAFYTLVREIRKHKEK
Procedure: as §1

KRas G12V = KRas G12V (Homo sapiens, UniProt P01116, G12V);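 also: KRas binding measured by TR-FRET displacement at room temperature, IC50 fitted from percent of control values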
Chain of KRas G12V (P01116 1-169 isoform P01116-2 G12V): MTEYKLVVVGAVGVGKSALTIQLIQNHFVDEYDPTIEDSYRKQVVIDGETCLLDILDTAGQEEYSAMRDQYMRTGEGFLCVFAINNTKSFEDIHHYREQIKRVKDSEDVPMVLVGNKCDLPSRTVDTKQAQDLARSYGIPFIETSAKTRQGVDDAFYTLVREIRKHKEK
Procedure: as §1

Chain of KRas WT (P01116 1-169 isoform P01116-2): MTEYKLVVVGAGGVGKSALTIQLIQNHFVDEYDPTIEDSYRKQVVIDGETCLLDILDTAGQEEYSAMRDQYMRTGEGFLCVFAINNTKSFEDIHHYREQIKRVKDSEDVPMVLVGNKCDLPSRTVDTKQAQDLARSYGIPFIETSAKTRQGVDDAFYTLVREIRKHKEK
Chain of KRas G12A (P01116 1-169 isoform P01116-2 G12A): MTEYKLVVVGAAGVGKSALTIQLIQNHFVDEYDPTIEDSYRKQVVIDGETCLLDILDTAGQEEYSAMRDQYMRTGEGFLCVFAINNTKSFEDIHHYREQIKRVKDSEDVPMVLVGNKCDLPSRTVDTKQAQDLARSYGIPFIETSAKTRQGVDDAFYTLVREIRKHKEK

Row | IC50 (KRas G12A) | IC50 (KRas WT) | IC50 (KRas G12D) | IC50 (KRas G12S) | IC50 (KRas G12R) | IC50 (KRas G12C) | IC50 (KRas G12V) | SMILES
1 | 5620 nM | 4070 nM | 8390 nM | 4160 nM | 4380 nM | 3600 nM | 3660 nM | N#Cc1cccc2cccc(-c3ncc4c(N5CCCC6(C5)NC(=O)NC6=O)nc(OCC56CCCN5CCC6)nc4c3F)c12 (stereo not drawn) [Example 449, 8-(4-(2,4-dioxo-1,3,7-triazaspiro[4.5]decan-7-yl)-8-fluoro-2-((hexahydro-1H-pyrrolizin-7a-yl)methoxy)pyrido[4,3-d]pyrimidin-7-yl)-1-naphthonitrile]
2 | 3120 nM | 2270 nM | 2580 nM | 2060 nM | 4170 nM | 1900 nM | 2860 nM | N#Cc1cccc2cccc(-c3ncc4c(N5CCCC6(CC(=O)N6)C5)nc(OCC56CCCN5CCC6)nc4c3F)c12 (stereo not drawn) [Example 451, 8-(8-fluoro-2-((hexahydro-1H-pyrrolizin-7a-yl)methoxy)-4-(2-oxo-1,6-diazaspiro[3.5]nonan-6-yl)pyrido[4,3-d]pyrimidin-7-yl)-1-naphthonitrile]
3 | 176 nM | 163 nM | 105 nM | 167 nM | 421 nM | 157 nM | 191 nM | Cc1cccc2cccc(-c3ncc4c(N5CCCC6(CNC(=O)N6)C5)nc(OCC56CCCN5CCC6)nc4c3F)c12 (stereo not drawn) [Example 454, 7-(8-fluoro-2-((hexahydro-1H-pyrrolizin-7a-yl)methoxy)-7-(8-methylnaphthalen-1-yl)pyrido[4,3-d]pyrimidin-4-yl)-1,3,7-triazaspiro[4.5]decan-2-one]
4 | 1550 nM | 2400 nM | 6490 nM | 1400 nM | 1360 nM | 2150 nM | 3060 nM | NS(=O)(=O)CC1CCCN(c2nc(OCC34CCCN3CCC4)nc3c(F)c(-c4cccc5cccc(C(F)F)c45)ncc23)C1 (stereo not drawn) [Example 463, 1-(1-(7-(8-(difluoromethyl)naphthalen-1-yl)-8-fluoro-2-((hexahydro-1H-pyrrolizin-7a-yl)methoxy)pyrido[4,3-d]pyrimidin-4-yl)piperidin-3-yl)methanesulfonamide]
5 | 3310 nM | 2680 nM | 2320 nM | 2140 nM | 2260 nM | 2310 nM | 1660 nM | O=C1CC2(CCCN(c3nc(OCC45CCCN4CCC5)nc4c(F)c(-c5cccc6cccc(C(F)F)c56)ncc34)C2)N1 (stereo not drawn) [Example 466, 6-(7-(8-(difluoromethyl)naphthalen-1-yl)-8-fluoro-2-((hexahydro-1H-pyrrolizin-7a-yl)methoxy)pyrido[4,3-d]pyrimidin-4-yl)-1,6-diazaspiro[3.5]nonan-2-one]

Continued, molecule first:

Row | SMILES | IC50 (KRas G12A) | IC50 (KRas WT) | IC50 (KRas G12D) | IC50 (KRas G12S) | IC50 (KRas G12R) | IC50 (KRas G12C) | IC50 (KRas G12V)
6 | Cc1cccc2cccc(-c3ncc4c(N5CCCC6(CC(=O)N6)C5)nc(OCC56CCCN5CCC6)nc4c3F)c12 (stereo not drawn) [Example 450, 6-(8-fluoro-2-((hexahydro-1H-pyrrolizin-7a-yl)methoxy)-7-(8-methylnaphthalen-1-yl)pyrido[4,3-d]pyrimidin-4-yl)-1,6-diazaspiro[3.5]nonan-2-one] | 356 nM | 335 nM | 250 nM | 276 nM | 344 nM | 235 nM | 238 nM
7 | O=C1NCC2(CCCN(c3nc(OCC45CCCN4CCC5)nc4c(F)c(-c5cccc6cccc(CO)c56)ncc34)C2)N1 (stereo not drawn) [Example 453, 7-(8-fluoro-2-((hexahydro-1H-pyrrolizin-7a-yl)methoxy)-7-(8-(hydroxymethyl)naphthalen-1-yl)pyrido[4,3-d]pyrimidin-4-yl)-1,3,7-triazaspiro[4.5]decan-2-one] | 559 nM | 467 nM | 274 nM | 459 nM | 1120 nM | 484 nM | 569 nM
8 | Cc1cccc2cccc(-c3ncc4c(N5CCCC(c6nc[nH]n6)C5)nc(OCC56CCCN5CCC6)nc4c3F)c12 (stereo not drawn) [Example 455, 4-(3-(1H-1,2,4-triazol-3-yl)piperidin-1-yl)-8-fluoro-2-((hexahydro-1H-pyrrolizin-7a-yl)methoxy)-7-(8-methylnaphthalen-1-yl)pyrido[4,3-d]pyrimidine] | 5990 nM | 11700 nM | 6350 nM | 8170 nM | 4510 nM | 8470 nM | 5150 nM
9 | C#Cc1cccc2cccc(-c3ncc4c(N5C[C@@H]6C(=O)NC(=O)[C@@H]6C5)nc(OCC56CCCN5CCC6)nc4c3F)c12 [Example 458, (3aR,6aS)-5-(7-(8-ethynylnaphthalen-1-yl)-8-fluoro-2-((hexahydro-1H-pyrrolizin-7a-yl)methoxy)pyrido[4,3-d]pyrimidin-4-yl)tetrahydropyrrolo[3,4-c]pyrrole-1,3(2H,3aH)-dione] | 97 nM | 53 nM | 15 nM | 28 nM | 172 nM | 75 nM | 39 nM
10 | NS(=O)(=O)CC1CCCN(c2nc(OCC34CCCN3CCC4)nc3c(F)c(-c4cccc5cccc(CF)c45)ncc23)C1 (stereo not drawn) [Example 460, 1-(1-(8-fluoro-7-(8-(fluoromethyl)naphthalen-1-yl)-2-((hexahydro-1H-pyrrolizin-7a-yl)methoxy)pyrido[4,3-d]pyrimidin-4-yl)piperidin-3-yl)methanesulfonamide] | 760 nM | 693 nM | 2320 nM | 759 nM | 548 nM | 916 nM | 1470 nM
11 | O=C1NC(=O)C2(CCCN(c3nc(OCC45CCCN4CCC5)nc4c(F)c(-c5cccc6cccc(CF)c56)ncc34)C2)N1 (stereo not drawn) [Example 462, 7-(8-fluoro-7-(8-(fluoromethyl)naphthalen-1-yl)-2-((hexahydro-1H-pyrrolizin-7a-yl)methoxy)pyrido[4,3-d]pyrimidin-4-yl)-1,3,7-triazaspiro[4.5]decane-2,4-dione] | 321 nM | 493 nM | 880 nM | 311 nM | 418 nM | 430 nM | 350 nM
12 | O=C1NC(=O)C2(CCCN(c3nc(OCC45CCCN4CCC5)nc4c(F)c(-c5cccc6cccc(C(F)F)c56)ncc34)C2)N1 (stereo not drawn) [Example 464, 7-(7-(8-(difluoromethyl)naphthalen-1-yl)-8-fluoro-2-((hexahydro-1H-pyrrolizin-7a-yl)methoxy)pyrido[4,3-d]pyrimidin-4-yl)-1,3,7-triazaspiro[4.5]decane-2,4-dione] | 507 nM | 661 nM | 986 nM | 355 nM | 513 nM | 459 nM | 469 nM
13 | O=C1CC2(CCCN(c3nc(OCC45CCCN4CCC5)nc4c(F)c(-c5cccc6cccc(C(F)(F)F)c56)ncc34)C2)N1 (stereo not drawn) [Example 467, 6-(8-fluoro-2-((hexahydro-1H-pyrrolizin-7a-yl)methoxy)-7-(8-(trifluoromethyl)naphthalen-1-yl)pyrido[4,3-d]pyrimidin-4-yl)-1,6-diazaspiro[3.5]nonan-2-one] | 968 nM | 1480 nM | 915 nM | 1140 nM | 1020 nM | 1110 nM | 651 nM
14 | O=C1CC2(CCCN(c3nc(OCC45CCCN4CCC5)nc4c(F)c(-c5cccc6cccc(CF)c56)ncc34)C2)N1 (stereo not drawn) [Example 468, 6-(8-fluoro-7-(8-(fluoromethyl)naphthalen-1-yl)-2-((hexahydro-1H-pyrrolizin-7a-yl)methoxy)pyrido[4,3-d]pyrimidin-4-yl)-1,6-diazaspiro[3.5]nonan-2-one] | 2810 nM | 3020 nM | 2880 nM | 2480 nM | 2900 nM | 2410 nM | 2310 nM
15 | CSc1cccc2cccc(-c3ncc4c(N5CCCC6(CC(=O)N6)C5)nc(OCC56CCCN5CCC6)nc4c3F)c12 (stereo not drawn) [Example 469, 6-(8-fluoro-2-((hexahydro-1H-pyrrolizin-7a-yl)methoxy)-7-(8-(methylthio)naphthalen-1-yl)pyrido[4,3-d]pyrimidin-4-yl)-1,6-diazaspiro[3.5]nonan-2-one] | 180 nM | 196 nM | 127 nM | 146 nM | 149 nM | 135 nM | 105 nM
16 | O=C1CC2(CCCN(c3nc(OCC45CCCN4CCC5)nc4c(F)c(-c5cccc6cccc(CCF)c56)ncc34)C2)N1 (stereo not drawn) [Example 470, 6-(8-fluoro-7-(8-(2-fluoroethyl)naphthalen-1-yl)-2-((hexahydro-1H-pyrrolizin-7a-yl)methoxy)pyrido[4,3-d]pyrimidin-4-yl)-1,6-diazaspiro[3.5]nonan-2-one] | 347 nM | 475 nM | 406 nM | 341 nM | 503 nM | 348 nM | 355 nM
17 | Cc1cc2[nH]ncc2c(-c2ncc3c(N4CCCC(C)(O)C4)nc(OC[C@@]45CCCN4C[C@H](F)C5)nc3c2F)c1C (stereo partly drawn) [Example 471] | 332 nM | 362 nM | 309 nM | 391 nM | 1070 nM | 459 nM | 427 nM
18 | Fc1c(-c2cccc3cccc(Cl)c23)ncc2c(NCCCOC(F)F)nc(OCC34CCCN3CCC4)nc12 [Example 474, 7-(8-chloronaphthalen-1-yl)-N-(3-(difluoromethoxy)propyl)-8-fluoro-2-((tetrahydro-1H-pyrrolizin-7a(5H)-yl)methoxy)pyrido[4,3-d]pyrimidin-4-amine] | 2950 nM | 6170 nM | 8600 nM | 3450 nM | 3630 nM | 2390 nM | 1750 nM
